According to ChEMBL document CHEMBL3868618, “Synthesis and biological evaluation of chalcone derivatives containing aminoguanidine or acylhydrazone moieties” (Bioorg Med Chem Lett, 2016):
Converted amounts (≈) assume the structure as drawn.

Tests used:
[1] = tested on: Staphylococcus aureus; assay: Antibacterial activity against quinolone-resistant Staphylococcus aureus 3519 measured after 24 hrs by two-fold serial dilution method; format: functional; conditions: Staphylococcus aureus, 3519, 24 h
[2] = tested on: Staphylococcus aureus; assay: Antibacterial activity against methicillin-resistant Staphylococcus aureus 3167 measured after 24 hrs by two-fold serial dilution method; format: functional; conditions: Staphylococcus aureus, 3167, 24 h
[3] = tested on: Mus musculus; assay: Antiinflammatory activity in mouse assessed as inhibition of xylene-induced ear edema at 100 mg/kg, ip administered 30 mins before xylene challenge measured after 30 mins relative to DMSO-control; format: functional
[4] = tested on: Pseudomonas aeruginosa; assay: Antibacterial activity against Pseudomonas aeruginosa 2742 measured after 24 hrs by two-fold serial dilution method; format: functional; conditions: Pseudomonas aeruginosa, 2742, 24 h
[5] = tested on: Escherichia coli; assay: Antibacterial activity against Escherichia coli 1356 measured after 24 hrs by two-fold serial dilution method; format: functional; conditions: Escherichia coli, 1356, 24 h
[6] = tested on: Staphylococcus aureus; assay: Antibacterial activity against Staphylococcus aureus 209 measured after 24 hrs by two-fold serial dilution method; format: functional; conditions: Staphylococcus aureus, 209, 24 h
[7] = tested on: Escherichia coli; assay: Antibacterial activity against Escherichia coli 1924 measured after 24 hrs by two-fold serial dilution method; format: functional; conditions: Escherichia coli, 1924, 24 h
[8] = tested on: Streptococcus mutans; assay: Antibacterial activity against Streptococcus mutans 3065 measured after 24 hrs by two-fold serial dilution method; format: functional; conditions: Streptococcus mutans, 3065, 24 h
[9] = tested on: Staphylococcus aureus; assay: Antibacterial activity against methicillin-resistant Staphylococcus aureus 3506 measured after 24 hrs by two-fold serial dilution method; format: functional; conditions: Staphylococcus aureus, 3506, 24 h
[10] = tested on: Staphylococcus aureus; assay: Antibacterial activity against quinolone-resistant Staphylococcus aureus 3505 measured after 24 hrs by two-fold serial dilution method; format: functional; conditions: Staphylococcus aureus, 3505, 24 h
[11] = tested on: Salmonella typhimurium; assay: Antibacterial activity against Salmonella typhimurium 1926 measured after 24 hrs by two-fold serial dilution method; format: functional, Salmonella enterica subsp. enterica serovar Typhimurium; conditions: Salmonella enterica, 1926, 24 h
[12] = tested on: Staphylococcus aureus; assay: Antibacterial activity against Staphylococcus aureus 503 measured after 24 hrs by two-fold serial dilution method; format: functional; conditions: Staphylococcus aureus, 503, 24 h
[13] = tested on: Staphylococcus aureus; assay: Antibacterial activity against Staphylococcus aureus 4220 measured after 24 hrs by two-fold serial dilution method; format: functional; conditions: Staphylococcus aureus, 4220, 24 h
[14] = tested on: Candida albicans; assay: Antifungal activity against Candida albicans 7535 measured after 24 hrs by two-fold serial dilution method; format: functional; conditions: Candida albicans, 7535, 24 h
[15] = tested on: Mus musculus; assay: Antiinflammatory activity in mouse assessed as inhibition of xylene-induced ear edema at 100 mg/kg, po administered 1 hr before xylene challenge measured after 3 hrs; format: functional
[16] = tested on: Mus musculus; assay: Antiinflammatory activity in mouse assessed as inhibition of xylene-induced ear edema at 100 mg/kg, po administered 5 hrs before xylene challenge measured after 3 hrs; format: functional
[17] = tested on: Mus musculus; assay: Antiinflammatory activity in mouse assessed as inhibition of xylene-induced ear edema at 100 mg/kg, po administered 24 hrs before xylene challenge measured after 3 hrs; format: functional
[18] = tested on: Mus musculus; assay: Antiinflammatory activity in mouse assessed as inhibition of xylene-induced ear edema at 50 mg/kg, po administered 2 hrs before xylene challenge measured after 3 hrs; format: functional
[19] = tested on: Mus musculus; assay: Antiinflammatory activity in mouse assessed as inhibition of xylene-induced ear edema at 100 mg/kg, po administered 4 hrs before xylene challenge measured after 3 hrs; format: functional
[20] = tested on: Mus musculus; assay: Antiinflammatory activity in mouse assessed as inhibition of xylene-induced ear edema at 100 mg/kg, po administered 2 hrs before xylene challenge measured after 3 hrs; format: functional
[21] = tested on: Mus musculus; assay: Antiinflammatory activity in mouse assessed as inhibition of xylene-induced ear edema at 100 mg/kg, po administered 3 hrs before xylene challenge measured after 3 hrs; format: functional
[22] = tested on: Mus musculus; assay: Antiinflammatory activity in mouse assessed as inhibition of xylene-induced ear edema at 25 mg/kg, po administered 2 hrs before xylene challenge measured after 3 hrs; format: functional

| SMILES | MIC [1] | MIC [2] | inhibition in vivo at 100 mg/kg [3] | MIC [4] | MIC [5] | MIC [6] | MIC [7] | MIC [8] | MIC [9] | MIC [10] | MIC [11] | MIC [12] | MIC [13] | MIC [14] | also measured |
| --- | --- | --- | --- | --- | --- | --- | --- | --- | --- | --- | --- | --- | --- | --- | --- |
| O=C(N/N=C/c1ccc(/C=C/C(=O)c2ccc(Cl)cc2Cl)cc1)c1ccncc1 | 16 µg/mL (≈ 37.7 µM) | 16 µg/mL (≈ 37.7 µM) | 83.8% | > 64 µg/mL | 32 µg/mL (≈ 75.4 µM) | 16 µg/mL (≈ 37.7 µM) | 32 µg/mL (≈ 75.4 µM) | 32 µg/mL (≈ 75.4 µM) | 16 µg/mL (≈ 37.7 µM) | 16 µg/mL (≈ 37.7 µM) | > 64 µg/mL | 16 µg/mL (≈ 37.7 µM) | 8 µg/mL (≈ 18.9 µM) | 4 µg/mL (≈ 9.43 µM) |  |
| N=C(N)N/N=C/c1ccc(/C=C/C(=O)c2ccccc2F)cc1 | 8 µg/mL (≈ 25.8 µM) | 8 µg/mL (≈ 25.8 µM) | 91.7% | 4 µg/mL (≈ 12.9 µM) | 16 µg/mL (≈ 51.6 µM) | 8 µg/mL (≈ 25.8 µM) | 8 µg/mL (≈ 25.8 µM) | 8 µg/mL (≈ 25.8 µM) | 4 µg/mL (≈ 12.9 µM) | 8 µg/mL (≈ 25.8 µM) | 4 µg/mL (≈ 12.9 µM) | 8 µg/mL (≈ 25.8 µM) | 4 µg/mL (≈ 12.9 µM) | 8 µg/mL (≈ 25.8 µM) |  |
| O=C(/C=C/c1ccc(/C=N/NC(=O)c2ccncc2)cc1)c1ccc(F)cc1 | 32 µg/mL (≈ 85.7 µM) | 32 µg/mL (≈ 85.7 µM) | 51.1% | > 64 µg/mL | 64 µg/mL (≈ 171 µM) | 32 µg/mL (≈ 85.7 µM) | 64 µg/mL (≈ 171 µM) | 64 µg/mL (≈ 171 µM) | 32 µg/mL (≈ 85.7 µM) | 32 µg/mL (≈ 85.7 µM) | > 64 µg/mL | 64 µg/mL (≈ 171 µM) | 32 µg/mL (≈ 85.7 µM) | > 64 µg/mL |  |
| N=C(N)N/N=C/c1ccc(/C=C/C(=O)c2cccc(Cl)c2)cc1 | 8 µg/mL (≈ 24.5 µM) | 4 µg/mL (≈ 12.2 µM) | 80.7% | 4 µg/mL (≈ 12.2 µM) | 8 µg/mL (≈ 24.5 µM) | 4 µg/mL (≈ 12.2 µM) | 4 µg/mL (≈ 12.2 µM) | 4 µg/mL (≈ 12.2 µM) | 2 µg/mL (≈ 6.12 µM) | 4 µg/mL (≈ 12.2 µM) | 2 µg/mL (≈ 6.12 µM) | 4 µg/mL (≈ 12.2 µM) | 4 µg/mL (≈ 12.2 µM) | 4 µg/mL (≈ 12.2 µM) |  |
| O=C(N/N=C/c1ccc(/C=C/C(=O)c2ccccc2Cl)cc1)c1cccc(Cl)c1 | 32 µg/mL (≈ 75.6 µM) | 32 µg/mL (≈ 75.6 µM) | 43% | > 64 µg/mL | > 64 µg/mL | 32 µg/mL (≈ 75.6 µM) | > 64 µg/mL | > 64 µg/mL | 32 µg/mL (≈ 75.6 µM) | 32 µg/mL (≈ 75.6 µM) | > 64 µg/mL | 32 µg/mL (≈ 75.6 µM) | 32 µg/mL (≈ 75.6 µM) | > 64 µg/mL |  |
| N=C(N)N/N=C/c1ccc(/C=C/C(=O)c2ccccc2Cl)cc1 | 16 µg/mL (≈ 49 µM) | 8 µg/mL (≈ 24.5 µM) | 84.1% | 8 µg/mL (≈ 24.5 µM) | 16 µg/mL (≈ 49 µM) | 8 µg/mL (≈ 24.5 µM) | 8 µg/mL (≈ 24.5 µM) | 8 µg/mL (≈ 24.5 µM) | 8 µg/mL (≈ 24.5 µM) | 8 µg/mL (≈ 24.5 µM) | 8 µg/mL (≈ 24.5 µM) | 8 µg/mL (≈ 24.5 µM) | 8 µg/mL (≈ 24.5 µM) | 8 µg/mL (≈ 24.5 µM) |  |
| N=C(N)N/N=C/c1ccc(/C=C/C(=O)c2ccc(F)cc2)cc1 | 8 µg/mL (≈ 25.8 µM) | 8 µg/mL (≈ 25.8 µM) | 90.7% | 4 µg/mL (≈ 12.9 µM) | 8 µg/mL (≈ 25.8 µM) | 8 µg/mL (≈ 25.8 µM) | 4 µg/mL (≈ 12.9 µM) | 8 µg/mL (≈ 25.8 µM) | 4 µg/mL (≈ 12.9 µM) | 8 µg/mL (≈ 25.8 µM) | 4 µg/mL (≈ 12.9 µM) | 8 µg/mL (≈ 25.8 µM) | 4 µg/mL (≈ 12.9 µM) | 4 µg/mL (≈ 12.9 µM) |  |
| O=C(N/N=C/c1ccc(/C=C/C(=O)c2ccccc2F)cc1)c1ccncc1 | 64 µg/mL (≈ 171 µM) | 64 µg/mL (≈ 171 µM) | 51.2% | > 64 µg/mL | 64 µg/mL (≈ 171 µM) | 64 µg/mL (≈ 171 µM) | 64 µg/mL (≈ 171 µM) | 16 µg/mL (≈ 42.9 µM) | 64 µg/mL (≈ 171 µM) | 64 µg/mL (≈ 171 µM) | > 64 µg/mL | 64 µg/mL (≈ 171 µM) | 64 µg/mL (≈ 171 µM) | > 64 µg/mL |  |
| Cc1ccc(C(=O)/C=C/c2ccc(/C=N/NC(=N)N)cc2)cc1 | 4 µg/mL (≈ 13.1 µM) | 8 µg/mL (≈ 26.1 µM) | 77.7% | 2 µg/mL (≈ 6.53 µM) | 8 µg/mL (≈ 26.1 µM) | 4 µg/mL (≈ 13.1 µM) | 4 µg/mL (≈ 13.1 µM) | 8 µg/mL (≈ 26.1 µM) | 2 µg/mL (≈ 6.53 µM) | 4 µg/mL (≈ 13.1 µM) | 4 µg/mL (≈ 13.1 µM) | 4 µg/mL (≈ 13.1 µM) | 4 µg/mL (≈ 13.1 µM) | 2 µg/mL (≈ 6.53 µM) |  |
| COc1ccc2c(c1)c(CC(=O)O)c(C)n2C(=O)c1ccc(Cl)cc1 [INDOMETHACIN] |  |  | 89.4% |  |  |  |  |  |  |  |  |  |  |  | inhibition in vivo at 100 mg/kg [15]: 12%; inhibition in vivo at 100 mg/kg [16]: 10.3%; inhibition in vivo at 100 mg/kg [17]: 5.01%; inhibition in vivo at 50 mg/kg [18]: 22.8%; inhibition in vivo at 100 mg/kg [19]: 15.6%; inhibition in vivo at 100 mg/kg [20]: 30.9 to 33.3%; inhibition in vivo at 100 mg/kg [21]: 18.6%; inhibition in vivo at 25 mg/kg [22]: 4.85% |
